Patent US20250339409A1, “USES OF PAN BET INHIBITORS” (VYNE THERAPEUTICS INC., priority 2021, published 2025)
Values after ≈ are worked out from the molar mass of the structure shown. Values joined by “and” are separate entries in the source; they are usually repeats but may differ in a detail not shown here. Identical values can stand only once. Like-named read-outs stand apart in the source and are kept apart here.

What was measured:
E-cadherin = assay: RHE vitiligo model: E-cadherin secretion by ELISA; type: cell-based, human; conditions: for E-Cad (% stimulated ctl) Mean / E-Cad (% stimulated ctl): TNF-α/IFN-γ stimulated RHE; for E-Cad (% stimulated ctl) Mean / E-Cad (% stimulated ctl) / Mean conc E-Cad / Conc E-Cad: 48 h; for E-Cad (% stimulated ctl) / Conc E-Cad: replicates N1-N3; for Mean conc E-Cad / Conc E-Cad: culture medium of RHE, TNF-α 12 ng/ml/IFN-γ 12 ng/ml; for E-Cadherin secretion: RHE stimulated with TNF-α/IFN-γ
Procedure: […] Three epidermis samples per condition are fixed in 4% formaldehyde solution and embedded in paraffin for further analysis (morphology analysis, melanin and melanocytes localisation/quantification). Three other epidermis samples per condition are put in a specific lysis buffer for total RNA extraction.
At the end of the treatments, culture media is collected (from 3 epidermis per condition), aliquoted and stored at −20° C. until use in ELISA assays. The quantity of MMP-9 secreted by the epidermis at the end of the treatments is analysed using the human MMP-9 Quantikine ELISA kit (Bio-Techne; DMP900). The secretion of E-cadherin in culture media is measured using to human E-cadherin Quantikine ELISA kit (Bio-Techne; DCADE0) dedicated for the measurement of natural human E-cadherin in culture supernates, serum, plasma, urine, and saliva.
The ELISAs are performed following the instructions of the supplier. The quantities of MMP-9 and E-cadherin are determined by comparisons with standard curves performed with recombinant human MMP-9 or E-cadherin provided in the kits.
Quantification of secretion of MMP-9 and E-cadherin by ELISA from collected culture medium was conducted in accordance with Method E. The results, shown in FIG. 5A and FIG. 5B are based on Tables 23 and 24 respectively and presented in percentage of release in comparison to the stimulated control. A statistical analysis (student t-test) was performed to compare the effects of the treatments with the formulations to the vehicle (with $: 0.05>p>0.01; $$: 0.01>p>0.001; and $$$: p<0.001). The same analysis was performed to compare the effects of the vehicle and of the unstimulated control to the stimulated control (with *: 0.05>p>0.01; **: 0.01>p>0.001; and ***: p<0.001). The analysis was performed from three replicates per condition (n=3). The mean of the three values and the standard deviation are presented on the histograms in FIG. 5A and FIG. 5B. As shown in Table 21 and FIG. 5A and consistent with the results of Part A, MMP-9 secretion was increased following the stimulation with the cytokines, which validates the assay.

[1] = system: melanin in basal layers of RHE; assay: RHE vitiligo model: melanin content and localization by Fontana Masson staining; type: cell-based, human
From the text: Melanin deposition on 6 μm paraffin sections of each epidermis (n=3) are highlighted through staining with Fontana Masson reagents (VWR—VWRK641295, VWRK641311; Klinipath—641215). Slides are mounted with specific medium and examined with a Nikon Eclipse (Ni-E) photomicroscope coupled to a numerical camera (DS-Ri2)
For the melanin quantification, three images of each epidermis are taken and analysed using the NIS-Element AR software (Nikon). For the quantification of melanin, a region of interest (ROI) is first defined and measured in the epidermis. This region includes only the basal layers. Then, two measures are taken by the software in this ROI. The first one represents the labelled surface on the ROI, and thus the area occupied by the melanin in the ROI. The second one corresponds to the global intensity of the staining in the ROI, reflecting a lighter or darker melanin. The relative quantification of melanin in the ROI is then performed by multiplying these two measures. To normalize the results to a given surface, this value was then divided by the surface of the ROI.
Formulations containing four doses of BETi1 the BETi1 vehicle (placebo), were evaluated in RHE TNF-α/IFN-γ vitiligo model as described Experimental section Method F and representative images of […] epidermis sections are shown in FIG. 6A-G. The images according to this method are consistent with the images with H/E stained epidermis sections and shown in FIG. 4A-H.
Results of the quantification of melanin in basal layers of epidermis stimulated or not with the cytokine cocktail to induce melanocytorhagy and treated with the test items are shown in FIG. 6H. The results are expressed with normalization to the surface of region of interest (ROI) corresponding to the 2-3 basal layers of the RHEs. […] As for TRP-1 staining, the effects of the ruxolitinib cream at 1% on melanin content could not be assessed given that the sections have detached from the glass slides during the staining process (probably without being bound by any theory may be due to the bad structure of the epidermis).

[2] = Solubility of BETi1 in solutions of hydroxypropyl-β-cyclodextrin in saline (HPLC); type: physicochemical; conditions: for solubility: aqueous with cosolvent or surfactant or cyclodextrin, thermodynamic from solid, 25° C., HPLC, read-out: Approximate solubility
Procedure: Saline is prepared by dissolving 0.9% of NaCl in water. 10% w/w or 20% w/w of hydroxypropyl-β-cyclodextrin (2HP-β-CD) is added to saline, sonicated for 1 minute, and mixed using magnetic stirrer until complete dissolution of 2HP-β-CD and a clear solution is obtained. Sufficient BETi1 is added to each 2HP-β-CD solution such that not all BETi1 is completely dissolved. The mixture is stirred with a magnetic stirrer at ambient conditions overnight (for at least 16 hours). The saturated samples, still containing solid phase, are filtered through a 0.45 μm filter and the filtrate is analyzed by HPLC.

Cn1cc(-c2cccc(O)c2Oc2ccccc2)c2cc[nH]c2c1=O [BETi1]
E-Cad (% stimulated ctl) Mean (E-cadherin; BETi1 0.001%): 138% | E-Cad (% stimulated ctl) (E-cadherin; BETi1 0.001%): 129% (2×) and 156% | Mean conc E-Cad (E-cadherin; BETi1 0.001%): 3.2 ng/mL | Conc E-Cad (E-cadherin; BETi1 0.001%): 3.0 ng/ml (2×) and 3.6 ng/ml | E-Cad (% stimulated ctl) Mean (E-cadherin; BETi1 0.01%): 118% | E-Cad (% stimulated ctl) (E-cadherin; BETi1 0.01%): 117% and 109% and 128% | Mean conc E-Cad (E-cadherin; BETi1 0.01%): 2.7 ng/mL | Conc E-Cad (E-cadherin; BETi1 0.01%): 2.7 ng/mL and 2.5 ng/mL and 2.9 ng/mL | E-Cad (% stimulated ctl) Mean (E-cadherin; BETi1 0.1%): 59% | E-Cad (% stimulated ctl) (E-cadherin; BETi1 0.1%): 61% and 56% and 62% | Mean conc E-Cad (E-cadherin; BETi1 0.1%): 1.4 ng/mL | Conc E-Cad (E-cadherin; BETi1 0.1%): 1.4 ng/ml (2×) and 1.3 ng/ml | E-Cad (% stimulated ctl) Mean (E-cadherin; BETi1 1%): 72% | E-Cad (% stimulated ctl) (E-cadherin; BETi1 1%): 71% and 72% and 74% | Mean conc E-Cad (E-cadherin; BETi1 1%): 1.7 ng/mL | Conc E-Cad (E-cadherin; BETi1 1%): 1.6 ng/ml and 1.7 ng/ml (2×) | E-Cadherin secretion (E-cadherin; listed as 1% BETi1): about 118% | E-Cadherin secretion (E-cadherin; listed as BETi1 0.1%): 59% | melanin retained relative to unstimulated control ([1]; basal layers of RHE): approximately 75% | residual melanin levels, % of stimulated/untreated control ([1]; basal layers of RHE): about 367% | melanin content in the basal layers ([1]; stimulated RHE, vs vehicle): significantly increase the melanin content in the basal layers | amount of BETi1 fully dissolved ([2]; 10% HP-b-CD in saline, room temperature): below 4.3 mg/mL | solubility ([2]; 10% w/w hydroxypropyl-β-cyclodextrin in saline, 2HP-β-CD - Saline (10%:90%)): 4340 µg/mL (≈ 13.1 mM) | solubility ([2]; 20% w/w hydroxypropyl-β-cyclodextrin in saline, 2HP-β-CD - Saline (20%:80%)): 8990 µg/mL (≈ 27 mM)
